Consider 18 compounds from patent publication US20160106711A1, “3-3-Di-Substituted-Oxindoles as Inhibitors of Translation Initiation” (President and Fellows of Harvard College, priority 2012, published 2016).

Where only a bound is given, the exact number is not on record here.

The test system of one assay is KLN. As to the kind of experiment: Cell growth assay (sulforhodamine B), KLN cells. Conditions: Mus musculus, 120 h, 5 days, SRB. It counts as cell-based, mouse. How it is done:
[…] Plates were then incubated with 0.4% SRB in 1% acetic acid for 1 h, washed with 1% acetic acid to remove the unbound dye, and air-dried. The bound dye was solubilized by addition of 10 mM Tris (pH 10), and the absorbance was determined in a Titertek Multiscan plate reader at 490 nm. The data calculations were carried out as described (the values for mean±SD of data from replicate wells are calculated): data are expressed in terms of % T/C [(OD of treated cells/OD of control cells)×100], as a measure of cell viability and survival in the presence of test materials. Calculations are also made for the concentration of test agents giving a T/C value of 50%, or 50% growth inhibition (IC50). With the SRB assay, a measure is made of the cell population density at time 0 (the time at which drugs are added) from two extra reference plates of inoculated cells fixed with TCA just prior to drug addition to the test plates. Thus, we have three measurements: control optical density (C), test optical density (T), and optical density at time zero (T0). The calculation is 100×[(T−T0)/(C−T0)]. If T is less than T0, cell killing has occurred and can be calculated from 100×[(T−T0)/T0]. Thus, for each drug-cell line combination, a dose-response curve is generated and three levels of effect are calculated.

The next assay concerns CRL-2813. The assay can be described thus: Cell growth assay (sulforhodamine B), CRL-2813 cells. The settings on record: Homo sapiens, CRL2813, 120 h, 5 days, SRB. It counts as cell-based, human. How it is done: (§1) Adherent mouse (KLN) and human solid tumor cells (CRL-2351, and CRL-2813) were plated in 96-well plates and maintained for 5 days in the presence of 0.54 to 6 μM of individual compound, and cell proliferation was measured by the sulforhodamine B (SRB) assay as described in ref. 11: briefly, cells were fixed in 10% cold trichloroacetic acid at 4° C. for 1 h, extensively washed with double-distilled H2O and air-dried. Plates were then incubated with 0.4% SRB in 1% acetic acid for 1 h, washed with 1% acetic acid to remove the unbound dye, and air-dried. The bound dye was solubilized by addition of 10 mM Tris (pH 10), and the absorbance was determined in a Titertek Multiscan plate reader at 490 nm. The data calculations were carried out as described (the values for mean±SD of data from replicate wells are calculated): data are expressed in terms of % T/C [(OD of treated cells/OD of control cells)×100], as a measure of cell viability and survival in the presence of test materials. Calculations are also made for the concentration of test agents giving a T/C value of 50%, or 50% growth inhibition (IC50). With the SRB assay, a measure is made of the cell population density at time 0 (the time at which drugs are added) from two extra reference plates of inoculated cells fixed with TCA just prior to drug addition to the test plates. Thus, we have three measurements: control optical density (C), test optical density (T), and optical density at time zero (T0). The calculation is 100×[(T−T0)/(C−T0)]. If T is less than T0, cell killing has occurred and can be calculated from 100×[(T−T0)/T0]. Thus, for each drug-cell line combination, a dose-response curve is generated and three levels of effect are calculated.

The next assay relates to CRL-2351. The assay can be described thus: Cell growth assay (sulforhodamine B), CRL-2351 cells. The assay is classed as cell-based, human. Conditions: Homo sapiens, 120 h, 5 days, SRB. How it is done: as §1
For assay [1], the system named is eIF2•GTP•Met-tRNAi ternary complex. The assay can be described thus: Ternary complex assay (ATF-4 assay), dual luciferase firefly/renilla ratio. It counts as cell-based, mouse. Conditions: Mus musculus; for maximal fold induction at 40 µM: read-out: ATF-4 Xmax @ 40 μM. From the text: For assay development, a bi-directional plasmid was designed in which a common promoter/enhancer complex drives the transcription of firefly luciferase (F-luc) ORF fused to the 5′ untranslated region (UTR) of ATF-4, and of the renilla luciferase (R-luc) ORF fused to a 90-nucleotide 5′ UTR derived from the plasmid (FIG. 6A). Because the tetracycline-regulated transactivator ((tTA), required for driving transcription from this vector) is not normally expressed in the mammalian cells, stable KLN cancer cells were constructed that expressed tTA (KLN-tTA).
The KLN-tTA colonies that drove expression of reporter genes from pBISA-DL plasmid were selected by transient transfection and dual luciferase assay. One of these KLN-tTA cell lines was transfected with the pBISA-DL^(ATF-4) expression vector, stable colonies were selected by dual luciferase assay and expanded.
Plasmids and Ternary Complex Assay
(ATF-4 Assay). Briefly, bi-directional mammalian expression vector pBI (Clontech, CA) was modified to expand the multiple cloning sites (MCSs) and designated thereafter as pBISA. This vector contains seven copies of the tetracycline-regulated transactivator response element (TRE), which together act as core promoter/enhancer. The TRE is flanked on both sides by minimal human cytomegalovirus (CMV) minimal promoters allowing bi-directional transcription and two MCSs. Firefly and renilla luciferases were subcloned into MCS-I and MCS-II, respectively. This plasmid, designated pBISA-DL, transcribes two mRNAs that contain the 90 nucleotide plasmid derived 5′UTR (same sequence in both mRNAs), and the ORF encoding either firefly or renilla luciferase followed by a polyadenylation sequence as described in Ziegeler, G.; Ming, J.; Koseki, J. C.; Sevinc, S.; Chen, T.; Ergun, S.; Qin, X.; Aktas, B. H. J. Biol. Chem. 2010, 285, 15408 hereby incorporated by reference. This plasmid was further modified by inserting the 5′UTR of ATF-4 into MCS-I in front of the firefly luciferase mRNA. Transcription from this direction generates an mRNA that contains the firefly luciferase ORF preceded by a 5′UTR composed of 90 nucleotides derived from the plasmid and 267 nucleotides derived from the 5′UTR of ATF-4 mRNA. Transcription from the other direction generates an mRNA that contains the renilla luciferase ORF proceeded only by the 90-nucleotide plasmid-derived sequence in the 5′UTR. This expression plasmid is called pBISA-DL(ATF-4). In the dual luciferase assay, cells expressing firefly and renilla luciferases were lysed and the extracts assayed with a Dual-Glo Luciferase assay kit, per manufacturer's instruction (Promega Inc., Madison, Wis.). The data calculations were carried out as the ratio of firefly to renilla luciferase signal as described in Chen, T.; Ozel, D.; Qiao, Y.; Harbinski, F.; Chen, L.; Denoyelle, S.; He, X.; Zvereva, N.; Supko, J. G.; Chorev, M.; Halperin, J. A.; Aktas, B. H. Nat. Chem. Biol. 2011, 7, 610 hereby incorporated by reference.

What is called IC50 is the concentration at which inhibition is half-maximal.

Consider `CN1CCN(CCOc2ccc(C(C)(C)C)cc2C2(c3cc(C(C)(C)C)ccc3OCCN3CCN(C)CC3)C(=O)Nc3ccccc32)CC1` [HY413], for which the IC50 in the assay with KLN worked out at 0.85 ± 0.02 µM; with CRL-2813, 0.74 ± 0.01 µM; in the assay with CRL-2351, 0.2 ± 0.08 µM. Also, in assay [1] (read-out: ATF-4 Xmax), the maximal fold induction at 10 µM worked out at 9.7 ± 3.8.

With `O=C1Nc2c(ccc(F)c2F)C1(c1ccc(O)cc1)c1ccc(O)cc1` [SD132], the IC50 was above 20 µM in the assay with KLN, 3.74 ± 0.28 µM with CRL-2813 and above 20 µM in the assay with CRL-2351. Moreover, the maximal fold induction at 80 µM in assay [1] (read-out: ATF-4 Xmax) turned out to be 8.8 ± 1.97.

Consider `CN(C)CCOc1ccc(C(C)(C)C)cc1C1(c2ccccc2)C(=O)Nc2ccccc21` (stereo not drawn) [Sd028, 3-(5-tert-Butyl-2-(2-(dimethylamino)ethoxy)phenyl)-3-phenylindolin-2-one], for which the values for the IC50 with KLN, in the assay with CRL-2813 and in the assay on CRL-2351 were 1.2 ± 0.3 µM, 2.4 ± 0.4 µM and 1.4 ± 0.3 µM, respectively. The maximal fold induction at 10 µM in assay [1] (read-out: ATF-4 Xmax) was found to be 2.69 ± 0.36.

`CC(C)(C)c1ccc(OCCN2CCOCC2)c(C2(c3ccccc3)C(=O)Nc3ccccc32)c1` (stereo not drawn) [Sd029, 3-(5-tert-Butyl-2-(2-morpholinoethoxy)phenyl)-3-phenylindolin-2-one]: the IC50 with KLN was determined as 6.8 ± 3.7 µM; with CRL-2813, 2.4 ± 0.3 µM; in the assay on CRL-2351, 3.35 ± 0.3 µM. For the same compound, the maximal fold induction at 40 µM in assay [1] turned out to be 4 ± 0.1.

As for `CC(C)(C)c1ccc(OCCN2CCNCC2)c(C2(c3ccccc3)C(=O)Nc3ccccc32)c1` (stereo not drawn) [Sd049, 33-{5-tert-butyl-2-[2-(piperazin-1-yl)ethoxy]phenyl}-3-phenylindol-2-one], the IC50 with KLN came out at 1.2 ± 0.3 µM; in the assay on CRL-2813 it was 12.8 ± 0.8 µM; in the assay on CRL-2351, 0.9 ± 0.1 µM. For the same compound, in assay [1] (20 uM, read-out: ATF-4 Xmax), the maximal fold induction at 20 µM worked out at 2.1 ± 0.65.

For `COc1ccc(C2(c3cc(C(C)(C)C)ccc3O)C(=O)Nc3ccccc32)cc1` (stereo not drawn) [Sd086], the IC50 with KLN worked out at 15.7 ± 1.1 µM; in the assay on CRL-2813 it was 2.75 ± 0.1 µM; in the assay on CRL-2351, 2.65 ± 0.1 µM. For the same compound, the maximal fold induction at 40 µM in assay [1] came to 5.6 ± 0.5.

With `CC(C)(C)c1ccc(O)c(C2(c3ccc(O)cc3)C(=O)Nc3ccccc32)c1` (stereo not drawn) [Sd096], the IC50 with KLN was 17.3 ± 1.8 µM; with CRL-2813, 4 ± 0.28 µM; in the assay with CRL-2351 it was 2 µM. The maximal fold induction at 40 µM in assay [1] is 1.69 ± 0.6.

For `C#CCOc1ccc(C(C)(C)C)cc1C1(c2ccccc2)C(=O)Nc2ccccc21` (stereo not drawn) [Sd123, 3-[5-tert-butyl-2-(prop-2-yn-1-yloxy)phenyl]-3-phenylindol-2-one], the IC50 with KLN was above 20 µM; with CRL-2813 it was above 20 µM; with CRL-2351, 17.5 ± 2 µM. For the same compound, the maximal fold induction at 80 µM in assay [1] (read-out: ATF-4 Xmax) was determined as 5.1 ± 1.65.

On to `COc1ccc(C2(c3cc(C(C)(C)C)ccc3OCCN3CCOCC3)C(=O)Nc3ccccc32)cc1` (stereo not drawn) [Sd139, 3-{5-tert-butyl-2-[2-(morpholin-4-yl)ethoxy]phenyl}-3-(4-methoxyphenyl)-indol-2-one], for which the figures for the IC50 with KLN, with CRL-2813 and in the assay on CRL-2351 were 4.3 ± 1 µM, 2.4 ± 0.9 µM and 2.65 ± 1.5 µM, respectively. The maximal fold induction at 40 µM in assay [1] was determined as 6.3 ± 0.3.

Regarding `COc1ccc(C2(c3cc(C(C)(C)C)ccc3O)C(=O)Nc3c2ccc(F)c3F)cc1` (stereo not drawn) [Sd140], the IC50 with KLN stood at 12.3 ± 2 µM; in the assay with CRL-2813, 3 µM; with CRL-2351 it was 0.95 ± 0.08 µM. Also, the maximal fold induction at 40 µM in assay [1] stood at 1.2 ± 0.46.

Regarding `CC(C)(C)c1ccc(O)c(C2(c3ccc(O)cc3)C(=O)Nc3c2ccc(F)c3F)c1` (stereo not drawn) [Sd141], the IC50 in the assay on KLN is 15.3 ± 1.9 µM; with CRL-2813, 10.7 ± 3.9 µM; in the assay with CRL-2351, above 20 µM. The maximal fold induction at 40 µM in assay [1] stood at 2.9 ± 0.6.

For the compound `COc1ccc(C2(c3cc(C(C)(C)C)ccc3OCCN3CCOCC3)C(=O)Nc3ccccc32)cc1OC` (stereo not drawn) [Sd152, 3-{5-tert-butyl-2-[2-(morpholin-4-yl)ethoxy]phenyl}-3-(3,4-dimethoxyphenyl)-indol-2-one], the IC50 in the assay on KLN, with CRL-2813 and with CRL-2351 was above 20 µM throughout. Further, the maximal fold induction at 80 µM in assay [1] (read-out: ATF-4 Xmax) was determined as 2.8.

On to `CN(C)c1ccc(C2(c3cc(C(C)(C)C)ccc3O)C(=O)Nc3ccccc32)cc1` (stereo not drawn) [Sd153], for which the IC50 with KLN came out at 10.9 ± 1.3 µM; in the assay on CRL-2813, 11 µM; in the assay on CRL-2351 it was 2.3 ± 0.3 µM. The maximal fold induction at 40 µM in assay [1] worked out at 3.55.

Regarding `CN(C)c1ccc(C2(c3cc(C(C)(C)C)ccc3OCCN3CCOCC3)C(=O)Nc3ccccc32)cc1` (stereo not drawn) [Sd154, 3-{5-tert-butyl-2-[2-(morpholin-4-yl)ethoxy]phenyl}-3-[4-(dimethylamino)phenyl]-indol-2-one], the IC50 in the assay with KLN was found to be 2.2 ± 0.6 µM; in the assay with CRL-2813 it was 7.5 ± 1 µM; with CRL-2351, 4.7 ± 0.3 µM. In addition, the maximal fold induction at 40 µM in assay [1] is 7.15 ± 0.49.

For `CN(C)c1ccc(C2(c3cc(C(C)(C)C)ccc3OCCN3CCOCC3)C(=O)Nc3c2ccc(F)c3F)cc1` (stereo not drawn) [Sd163], the IC50 in the assay on KLN was 15.7 ± 1.9 µM; in the assay with CRL-2813, 11 ± 1.3 µM; with CRL-2351 it was 4 ± 1 µM. In addition, in assay [1] (read-out: ATF-4 Xmax), the maximal fold induction at 80 µM turned out to be 5.1 ± 0.1.

On to `CC(C)(C)c1ccc(OCC(=O)O)c(C2(c3ccccc3)C(=O)Nc3ccccc32)c1` (stereo not drawn) [Sd177], for which the IC50 in the assay with KLN, in the assay with CRL-2813 and in the assay on CRL-2351 was above 20 µM in each case. Also, in assay [1] (read-out: ATF-4 Xmax), the maximal fold induction at 80 µM stood at 1.65 ± 0.04.

For the compound `COc1ccc(C2(c3cc(OC(C)C)ccc3OCCN3CCOCC3)C(=O)Nc3ccccc32)cc1` (stereo not drawn) [Sd179, 3-(4-Methoxyphenyl)-3-{2-[2-(morpholin-4-yl)ethoxy]-5-(propan-2-yloxy)phenyl}-indol-2-one], the figures for the IC50 with KLN, in the assay on CRL-2813 and with CRL-2351 were 11.8 ± 1 µM, 13.4 ± 0.7 µM and 8.6 ± 1 µM, respectively. Further, the maximal fold induction at 80 µM in assay [1] (read-out: ATF-4 Xmax) was 2.6 ± 0.14.

With `COc1ccc(C2(c3cc(C(C)(C)C)ccc3O)C(=O)Nc3ccc(OC)cc32)cc1` (stereo not drawn) [Sd184], the IC50 in the assay with KLN was determined as 14.3 ± 3 µM; in the assay with CRL-2813, 11.1 ± 1.1 µM; in the assay with CRL-2351, 2.9 ± 0.3 µM. For the same compound, in assay [1], the maximal fold induction at 40 µM was 4 ± 0.36.
